The record followed here is BindingDB's records for doi:10.1021/ml400168h (Merck Research Laboratories, 2013).

The target in this test is Sterol O-acyltransferase 1 / ACAT1 (Homo sapiens) (UniProt P35610). Put plainly: Inhibition of human ACAT1.

Each structure is given as a SMILES string. Bounds are passed on as bounds.

Chain of Sterol O-acyltransferase 1 / ACAT1 (Homo sapiens) (P35610 whole entry, looked up): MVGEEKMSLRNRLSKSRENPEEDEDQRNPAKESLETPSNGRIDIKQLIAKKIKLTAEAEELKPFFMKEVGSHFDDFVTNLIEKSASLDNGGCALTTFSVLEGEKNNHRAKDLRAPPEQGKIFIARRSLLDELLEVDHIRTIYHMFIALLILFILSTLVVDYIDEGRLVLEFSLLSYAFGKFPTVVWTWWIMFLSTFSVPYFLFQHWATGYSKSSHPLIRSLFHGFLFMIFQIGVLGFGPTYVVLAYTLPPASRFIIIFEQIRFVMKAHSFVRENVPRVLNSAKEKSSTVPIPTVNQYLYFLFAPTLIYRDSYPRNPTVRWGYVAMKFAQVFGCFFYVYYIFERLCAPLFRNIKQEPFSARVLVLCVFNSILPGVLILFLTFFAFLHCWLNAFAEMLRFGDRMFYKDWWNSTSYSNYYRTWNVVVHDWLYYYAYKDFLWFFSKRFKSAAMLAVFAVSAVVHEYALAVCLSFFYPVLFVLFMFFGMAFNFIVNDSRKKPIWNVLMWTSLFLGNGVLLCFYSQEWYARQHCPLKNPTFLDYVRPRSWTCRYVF

For the compound `COc1ccc2[nH]c(-c3ccc(-c4ccc(O[C@H]5CC[C@H](C(=O)O)CC5)nc4)nc3)nc2n1`, the IC50 came out at 4.9 µM.
The result for `O=C(O)[C@H]1CC[C@H](Oc2ccc(-c3ccc(-c4nc5ccc(F)cc5[nH]4)cn3)cn2)CC1` reads above 10 µM; that for `N#Cc1ccc2nc(-c3ccc(-c4ccc(O[C@H]5CC[C@@H](C(=O)O)CC5)nc4)nc3)[nH]c2c1`, above 10 µM; that for `CS(=O)(=O)c1ccc2nc(-c3ccc(-c4ccc(O[C@H]5CC[C@H](C(=O)O)CC5)nc4)nc3)[nH]c2c1`, above 10 µM.
The result for `O=C(O)[C@H]1CC[C@@H](Oc2ccc(-c3ccc(-c4nc5cc(F)c(F)cc5[nH]4)cn3)cn2)CC1` reads above 10 µM; that for `O=C(O)[C@H]1CC[C@@H](Oc2ccc(-c3ccc(-c4nc5ccccc5[nH]4)cn3)cn2)CC1`, 8.08 µM.
The result for `O=C(O)[C@H]1CC[C@H](Oc2ccc(-c3ccc(-c4nc5ccccc5[nH]4)cn3)cn2)CC1` reads 6.07 µM.
In turn, `O=C(O)[C@H]1CC[C@@H](Oc2ccc(-c3ccc(-c4nc5ccc(F)cc5[nH]4)cn3)cn2)CC1` gave an IC50 above 10 µM.
`O=C(O)C[C@H]1CC[C@H](c2ccc(-c3ccc(-c4nc5ccc(Cl)cc5[nH]4)cn3)cc2)CC1` had an IC50 of 0.167 µM.
Consider `O=C(O)[C@H]1CC[C@@H](Oc2ccc(-c3ccc(-c4nc5ccc(Cl)cc5[nH]4)cn3)cn2)CC1`, for which the IC50 was found to be 3.53 µM.
The result for `O=C(O)[C@H]1CC[C@H](Oc2ccc(-c3ccc(-c4nc5ccc(C(F)(F)F)cc5[nH]4)cn3)cn2)CC1` reads 1.23 µM; that for `O=C(O)[C@H]1CC[C@@H](Oc2ccc(-c3ccc(-c4nc5ccc(OC(F)(F)F)cc5[nH]4)cn3)cn2)CC1`, 0.772 µM.
To `O=C(O)[C@H]1CC[C@H](Oc2ccc(-c3ccc(-c4nc5cc(F)c(F)cc5[nH]4)cn3)cn2)CC1` belongs 8.44 µM.
The result for `N#Cc1ccc2nc(-c3ccc(-c4ccc(O[C@H]5CC[C@H](C(=O)O)CC5)nc4)nc3)[nH]c2c1` reads above 10 µM.
With `O=C(O)[C@H]1CC[C@@H](Oc2ccc(-c3ccc(-c4nc5ccc(C(F)(F)F)cc5[nH]4)cn3)cn2)CC1`, the half-maximal inhibitory concentration (IC50) was found to be 1.09 µM.
To `COc1ccc2[nH]c(-c3ccc(-c4ccc(O[C@H]5CC[C@@H](C(=O)O)CC5)nc4)nc3)nc2n1` belongs 2.48 µM; to `CS(=O)(=O)c1ccc2nc(-c3ccc(-c4ccc(O[C@H]5CC[C@@H](C(=O)O)CC5)nc4)nc3)[nH]c2c1`, above 10 µM.
To `O=C(O)C[C@H]1CC[C@H](c2ccc(-c3ccc(-c4nc5ccc(C(F)(F)F)cc5[nH]4)cn3)cc2)CC1` belongs 0.293 µM; to `O=C(O)[C@H]1CC[C@H](Oc2ccc(-c3ccc(-c4nc5ccc(Cl)cc5[nH]4)cn3)cn2)CC1`, 1.34 µM.

By IC50 is commonly meant the concentration that inhibits the measured activity by half.
